Experiments:
[1] = target: T1, TIE2 intracellular domain/c-fms extracellular domain (TIE2/c-fms) chimeric protein (Homo sapiens, UniProt Q02763); assay: TIE-2 Autophosphorylation Assay (TIE2-C), ELISA; type: cell-based; conditions: TIE2/c-fms expressing mouse 3T3 cells, MCSF activation, read-out: TIE2-C pIC50 (converted)
T1 construct: TIE2 intracellular domain/c-fms extracellular domain (TIE2/c-fms) chimeric protein; expressed in transfected cells; host or cells: mouse 3T3 cells
Description: TIE-2 Autophosphorylation Assay (TIE2-C)
The TIE-2 autophosphorylation assay used an ELISA method and a TIE2 intracellular domain/c-fms extracellular domain (TIE2/c-fms) chimeric protein expressing mouse 3T3 cells. This assay measured the autophosphorylation level of TIE2 protein expressed in cells. The cells were cultured in high glucose DMEM (Sigma) containing 10% serum at 37° C. in a humidified 10% CO2, 90% air incubator. The test compound (diluted from a 10 mM stock in DMSO, final DMSO concentration was 0.1%) was incubated with TIE2/c-fms expressing cells for 1 hr in serum free DMEM in 96 well plates followed by the activation of TIE2/c-fms receptor using c-fms ligand, MCSF (macrophage colony stimulating factor). […] The cell extracts were transferred into Rat anti-c-fms antibody coated 96 well plates and incubated for 12 hrs at 4 degrees. The extracts were removed by aspiration and the plate was incubated with biotinylated anti-phosphotyrosine antibody, PT66 (Sigma) and then with HRP (Horseradish Peroxidase)-labeled streptavidin (PIERCE). The optical density at 450 nm derived from HRP catalyzed TMB was measured with an ARVO multilabel counter. (Wallac Berthold Japan). The percent inhibition of activity was calculated relative to blank control wells. […] The IC50 values were converted to pIC50 values, i.e., −log IC50 in Molar concentration.

GST-VEGFR2 = target: T2, GST-VEGFR2 (Homo sapiens, UniProt P35968); assay: VEGF-R2 Enzyme Assay (VEGF-E), LANCE method; type: biochemical; conditions: GST-VEGFR2, 75 uM ATP; read-out: VEGF-E pIC50 (converted)
T2 construct: GST-VEGFR2, baculovirus expressed recombinant constructs of the intracellular domains of human TIE2 tagged by GST; made in house
Description: VEGF-R2 Enzyme Assay (VEGF-E)
The VEGF enzyme assay used the LANCE method (Wallac) and GST-VEGFR2, baculovirus expressed recombinant constructs of the intracellular domains of human […] tagged by GST. […] The reaction was stopped by the addition of EDTA (final concentration 50 mM). […] The APC signal was measured using an ARVO multilabel counter (Wallac Berthold, Japan). The percent inhibition of activity was calculated relative to blank control wells. […] The IC50 values were converted to pIC50 values, i.e., −log IC50 in Molar concentration.

[2] = target: T3, GST-TIE2 (intracellular domains of human TIE2) (Homo sapiens, UniProt Q02763); assay: TIE-2 Enzyme assay (TIE2-E), LANCE method; type: biochemical; conditions: GST-TIE2, 80 uM ATP, D1–15 peptide; read-out: TIE2-E pIC50 (converted)
T3 construct: made in house
Description: TIE-2 Enzyme assay (TIE2-E)
Preactivated GST-TIE2 was incubated for 30 mins at room temperature in 96 well plates with 1 uM D1–15 peptide, 80 uM ATP, 10 mM MgCl2, 0.1 mg/ml BSA and the test compound (diluted from a 10 mM stock in DMSO, final DMSO concentration was 2.4%) in 1 mM HEPES (pH 7.4). The reaction was stopped by the addition of EDTA (final concentration 45 mM). Streptavidin linked-APC (allophycocyanin, Molecular Probe) and Europium-labeled anti-phosphorylated tyrosine antibody (Wallac) were then added at the final concentration of 17 ug/well and 2.1 ug/well, respectively. The APC signal was measured using an ARVO multilabel counter. (Wallac Berthold Japan). The percent inhibition of activity was calculated relative to blank control wells. […] The IC50 values were converted to pIC50 values, i.e., −log IC50 in Molar concentration.

[3] = tested on: Human umbilical cord endothelial cells (HUVEC); assay: VEGF-Driven Cellular Proliferation Assay, BrdU Incorporation Assay (VEGF-C); type: cell-based; conditions: Homo sapiens, read-out: VEGF-C pIC50 (converted)
Description: VEGF-Driven Cellular Proliferation Assay. BrdU Incorporation Assay (VEGF-C)
Human umbilical cord endothelial cells (HUVEC, Clonetics, CC2519) were passaged in Type I collagen-coated 100-mm petridishes in EGM-MV medium (Clonetics, CC3125) at 37 C in a humidified 5% CO2, 95% air incubator. […] After incubation overnight at 37° C., the media were replaced with 100 ul of M199 serum-free medium containing compounds at various concentrations with 0.6% DMSO and gentamicin. The compounds were diluted in serum-free M199 medium from 10 mM stock solutions prepared in 100% DMS0. […] The cells were pulsed with bromodeoxyuridine (BrdU at 10 uM in serum-free M199) at 37° C. for an additional 24 h. […] The optical density at 450 nm was measured with a multilabel counter (ARVO SX, Wallac). The percent inhibition of cell growth was calculated relative to blank control wells. […] The IC50 values were converted to pIC50 values, i.e., −log IC50 in Molar concentration.

Recombinant GST-Tie2 = target: T4, Recombinant GST-Tie2 (Homo sapiens, UniProt Q02763); assay: Tie2 Fluorescence Polarization Kinase Activity Assay (TIE2-FP); type: biochemical; conditions: 200 μM ATP, activated Tie2, fluorescence polarization
T4 construct: GST
T4 sequence (Q02763 23-1124): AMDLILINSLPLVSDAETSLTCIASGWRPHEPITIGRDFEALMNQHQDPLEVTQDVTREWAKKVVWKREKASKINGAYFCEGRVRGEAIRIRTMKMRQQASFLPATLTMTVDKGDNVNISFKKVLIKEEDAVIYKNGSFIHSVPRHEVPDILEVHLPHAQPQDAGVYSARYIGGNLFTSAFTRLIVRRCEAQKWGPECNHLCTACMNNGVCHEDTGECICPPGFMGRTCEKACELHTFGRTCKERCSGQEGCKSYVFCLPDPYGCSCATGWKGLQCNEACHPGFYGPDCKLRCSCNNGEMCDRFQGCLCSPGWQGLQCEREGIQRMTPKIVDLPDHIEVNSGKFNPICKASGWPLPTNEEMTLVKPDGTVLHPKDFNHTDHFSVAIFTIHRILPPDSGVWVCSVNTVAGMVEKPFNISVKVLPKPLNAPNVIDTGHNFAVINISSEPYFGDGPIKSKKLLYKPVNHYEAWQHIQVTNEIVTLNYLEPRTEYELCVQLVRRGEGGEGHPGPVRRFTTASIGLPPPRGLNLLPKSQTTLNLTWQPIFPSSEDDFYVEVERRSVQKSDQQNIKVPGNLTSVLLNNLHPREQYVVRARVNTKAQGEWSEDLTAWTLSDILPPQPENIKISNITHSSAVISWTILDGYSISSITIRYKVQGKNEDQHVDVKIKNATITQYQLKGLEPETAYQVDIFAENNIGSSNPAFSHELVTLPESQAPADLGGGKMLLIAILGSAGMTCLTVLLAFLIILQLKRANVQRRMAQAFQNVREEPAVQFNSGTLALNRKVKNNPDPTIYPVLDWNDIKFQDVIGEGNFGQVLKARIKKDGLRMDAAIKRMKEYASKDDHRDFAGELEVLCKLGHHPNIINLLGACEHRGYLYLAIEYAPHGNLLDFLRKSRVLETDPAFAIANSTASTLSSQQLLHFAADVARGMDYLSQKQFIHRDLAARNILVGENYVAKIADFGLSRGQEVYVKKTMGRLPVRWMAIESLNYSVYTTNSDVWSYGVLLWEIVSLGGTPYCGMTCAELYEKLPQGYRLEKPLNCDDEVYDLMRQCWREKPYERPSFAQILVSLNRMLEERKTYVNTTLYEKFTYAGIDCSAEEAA
Description: Tie2 Fluorescence Polarization Kinase Activity Assay: (TIE2-FP)
Activation of Recombinant Tie2 Activation:
Recombinant GST-Tie2 was activated by incubating the enzyme in 20 mM Tris-HCl, pH 7.5, 12 mM MgCl2, 100 mM NaCl, 20 μM sodium vanidate, 1 mM DTT and 300 μM ATP at room temperature for 2 hours. […] The activated enzyme was stored as aliquots at −80° C. in 20 mM Tris-HCl, pH 7.5 and 11 mM NaCl.
The final assay conditions were 50 mM HEPES, pH 7.5, 5% DMSO (when screening compounds), 200 μM ATP, 5 mM MgCl2, 1 mM DTT, 50 μM sodium vanidate, 1 nM activated enzyme, and 200 μM peptide. […] Panvera Anti-phosphotyrosine antibody (Cat#P2840) and PTK Green Tracer (Cat#P2842) were used to detect the phosphorylated peptide. […] IC50's were then determined from the % polarization using normal calculation methods.

T3 sequence (Q02763 762-1104): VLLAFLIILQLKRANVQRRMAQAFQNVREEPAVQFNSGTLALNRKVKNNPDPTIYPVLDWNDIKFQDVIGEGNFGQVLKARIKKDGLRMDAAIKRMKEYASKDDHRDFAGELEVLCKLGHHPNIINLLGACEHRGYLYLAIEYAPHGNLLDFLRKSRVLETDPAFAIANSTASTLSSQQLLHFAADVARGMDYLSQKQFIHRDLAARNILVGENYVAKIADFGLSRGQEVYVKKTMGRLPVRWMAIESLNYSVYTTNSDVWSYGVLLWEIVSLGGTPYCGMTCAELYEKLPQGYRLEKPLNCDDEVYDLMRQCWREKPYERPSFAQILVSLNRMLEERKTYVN
T1 sequence (Q02763 770-1124 limits assumed, change not shown): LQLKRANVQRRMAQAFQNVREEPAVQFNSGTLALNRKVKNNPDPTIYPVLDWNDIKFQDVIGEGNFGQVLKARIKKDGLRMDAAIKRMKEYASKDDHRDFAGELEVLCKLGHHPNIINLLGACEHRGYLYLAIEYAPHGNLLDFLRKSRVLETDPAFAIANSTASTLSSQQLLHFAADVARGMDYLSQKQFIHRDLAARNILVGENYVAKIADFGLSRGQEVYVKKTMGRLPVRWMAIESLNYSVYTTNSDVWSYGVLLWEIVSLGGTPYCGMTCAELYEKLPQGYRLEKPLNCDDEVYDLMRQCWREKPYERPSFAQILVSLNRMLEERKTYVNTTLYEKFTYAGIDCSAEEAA
T1 sequence (P07333 20-517 partner limits assumed): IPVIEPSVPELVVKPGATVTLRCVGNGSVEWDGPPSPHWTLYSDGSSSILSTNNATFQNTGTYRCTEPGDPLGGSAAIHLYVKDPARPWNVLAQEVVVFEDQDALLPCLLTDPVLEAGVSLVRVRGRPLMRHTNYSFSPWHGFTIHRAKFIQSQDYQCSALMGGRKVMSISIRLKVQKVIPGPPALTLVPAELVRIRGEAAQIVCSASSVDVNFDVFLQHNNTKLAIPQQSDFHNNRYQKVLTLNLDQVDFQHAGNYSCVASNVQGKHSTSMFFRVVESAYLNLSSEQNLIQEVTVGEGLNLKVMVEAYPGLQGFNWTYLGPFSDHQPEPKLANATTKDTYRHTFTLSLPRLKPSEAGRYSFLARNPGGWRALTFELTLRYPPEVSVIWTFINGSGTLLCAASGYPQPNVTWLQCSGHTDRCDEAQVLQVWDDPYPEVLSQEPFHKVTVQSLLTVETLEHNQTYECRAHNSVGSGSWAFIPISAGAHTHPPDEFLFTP
T1 sequence (P09603 33-190 partner limits assumed): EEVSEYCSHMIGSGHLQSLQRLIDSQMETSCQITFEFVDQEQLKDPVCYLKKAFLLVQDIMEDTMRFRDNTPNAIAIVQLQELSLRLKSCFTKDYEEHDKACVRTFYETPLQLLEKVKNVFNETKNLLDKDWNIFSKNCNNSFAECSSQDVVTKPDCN
T2 sequence (P35968 786-1356 limits assumed): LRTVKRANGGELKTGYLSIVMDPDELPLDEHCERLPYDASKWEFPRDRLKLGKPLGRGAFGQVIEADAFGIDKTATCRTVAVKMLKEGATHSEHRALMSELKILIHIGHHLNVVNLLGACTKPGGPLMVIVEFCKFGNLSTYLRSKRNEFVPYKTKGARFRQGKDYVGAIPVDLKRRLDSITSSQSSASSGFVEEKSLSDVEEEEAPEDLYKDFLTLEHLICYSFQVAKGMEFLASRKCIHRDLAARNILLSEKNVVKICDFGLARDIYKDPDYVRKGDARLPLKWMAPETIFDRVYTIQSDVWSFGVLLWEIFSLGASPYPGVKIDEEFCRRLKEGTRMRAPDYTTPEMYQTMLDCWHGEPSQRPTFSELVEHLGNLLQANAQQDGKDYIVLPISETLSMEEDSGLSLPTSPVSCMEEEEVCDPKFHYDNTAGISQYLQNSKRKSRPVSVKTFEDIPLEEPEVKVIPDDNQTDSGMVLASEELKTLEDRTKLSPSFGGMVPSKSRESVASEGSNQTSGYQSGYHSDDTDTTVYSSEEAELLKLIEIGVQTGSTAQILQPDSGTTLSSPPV

IC50 [1] [nM] | IC50 (GST-VEGFR2) [nM] | IC50 [2] [nM] | IC50 (Recombinant GST-Tie2) [nM] | SMILES | IC50 [3] [nM]
100 to 1000 | < 100 | 100 to 1000 | – | CNS(=O)(=O)c1cccc(-c2oc3ncnc(N)c3c2-c2ccc(-c3ccccc3)cc2)c1 [Example 200, 4-Amino-3-(4-biphenyl)-2-(3-(N-methylsulfonyl)phenyl)furo[2,3-d]pyrimidine] | 1000 to 10000
– | – | – | 1.8 | Nc1ncnc2scc(-c3ccc(NC(=O)Nc4cc(C(F)(F)F)ccc4F)cc3)c12 [Example 276, 4-Amino-3-(4-((2-fluoro-5-(trifluoromethyl)phenyl)aminocarbonylamino)phenyl)thieno[2,3-d]pyrimidine] | –

From patent US7427623B2, “4-Amino-2,3-disubstituted thieno[2,3-d]pyrimidines and pharmacetical compositions thereof” (SmithKline Beecham Corporation, priority 2001, dated 2008)
